Reference: PubChem BioAssay (NCI)
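Here, GI50 denotes the concentration required for 50% inhibition of growth. TGI marks complete inhibition of growth.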

Experiments:
Experiment in all cases: growth of human tumour cells (NCI), 384-well format
786-0 renal = tested on: 786-0 renal
A498 renal = tested on: A498 renal
A549 NSCLC = tested on: A549 NSCLC
ACHN renal = tested on: ACHN renal
BT-549 breast = tested on: BT-549 breast
CAKI-1 renal = tested on: CAKI-1 renal
CCRF-CEM leukemia = tested on: CCRF-CEM leukemia
COLO 205 colon = tested on: COLO 205 colon
DU-145 prostate = tested on: DU-145 prostate
EKVX NSCLC = tested on: EKVX NSCLC
HCC-2998 colon = tested on: HCC-2998 colon
HCT-15 colon = tested on: HCT-15 colon
HL-60(TB) leukemia = tested on: HL-60(TB) leukemia
HOP-62 NSCLC = tested on: HOP-62 NSCLC
HOP-92 NSCLC = tested on: HOP-92 NSCLC
HS 578T breast = tested on: HS 578T breast
HT29 colon = tested on: HT29 colon
IGROV1 ovarian = tested on: IGROV1 ovarian
KM12 colon = tested on: KM12 colon
M14 melanoma = tested on: M14 melanoma
MALME-3M melanoma = tested on: MALME-3M melanoma
MCF7 breast = tested on: MCF7 breast
MDA-MB-231 breast = tested on: MDA-MB-231 breast
MDA-MB-435 melanoma = tested on: MDA-MB-435 melanoma
MDA-MB-468 breast = tested on: MDA-MB-468 breast
MOLT-4 leukemia = tested on: MOLT-4 leukemia
NCI-H226 lung = tested on: NCI-H226 lung
NCI-H23 lung = tested on: NCI-H23 lung
NCI-H322M lung = tested on: NCI-H322M lung
NCI-H460 NSCLC = tested on: NCI-H460 NSCLC
NCI-H522 lung = tested on: NCI-H522 lung
NCI/ADR-RES ovarian = tested on: NCI/ADR-RES ovarian
OVCAR-3 ovarian = tested on: OVCAR-3 ovarian
OVCAR-4 ovarian = tested on: OVCAR-4 ovarian
OVCAR-5 ovarian = tested on: OVCAR-5 ovarian
OVCAR-8 ovarian = tested on: OVCAR-8 ovarian
PC-3 prostate = tested on: PC-3 prostate
RPMI-8226 leukemia = tested on: RPMI-8226 leukemia
RXF 393 renal = tested on: RXF 393 renal
SF-268 CNS = tested on: SF-268 CNS
SF-295 CNS = tested on: SF-295 CNS
SF-539 CNS = tested on: SF-539 CNS
SK-MEL-2 melanoma = tested on: SK-MEL-2 melanoma
SK-MEL-28 melanoma = tested on: SK-MEL-28 melanoma
SK-MEL-5 melanoma = tested on: SK-MEL-5 melanoma
SK-OV-3 ovarian = tested on: SK-OV-3 ovarian
SN12C renal = tested on: SN12C renal
SNB-19 CNS = tested on: SNB-19 CNS
SNB-75 CNS = tested on: SNB-75 CNS
SR leukemia = tested on: SR leukemia
SW-620 colon = tested on: SW-620 colon
T-47D breast = tested on: T-47D breast
TK-10 renal = tested on: TK-10 renal
U251 glioblastoma = tested on: U251 glioblastoma
UACC-257 melanoma = tested on: UACC-257 melanoma
UACC-62 melanoma = tested on: UACC-62 melanoma

O=c1c(O)c(-c2ccc(O)c(O)c2)oc2cc(O)cc(O)c12
GI50 (786-0 renal): 36.5 µM
TGI (786-0 renal): > 100 µM
GI50 (A498 renal): 14.2 µM
TGI (A498 renal): 73.2 µM
GI50 (A549 NSCLC): 28.2 µM
TGI (A549 NSCLC): > 100 µM
GI50 (ACHN renal): 35.1 µM
TGI (ACHN renal): 88.2 µM
GI50 (BT-549 breast): 17 µM
TGI (BT-549 breast): 61.7 µM
GI50 (CAKI-1 renal): 44.8 µM
TGI (CAKI-1 renal): > 100 µM
GI50 (CCRF-CEM leukemia): 13.7 µM
TGI (CCRF-CEM leukemia): 26.7 µM
GI50 (COLO 205 colon): > 100 µM
TGI (COLO 205 colon): > 100 µM
GI50 (DU-145 prostate): 24.4 µM
TGI (DU-145 prostate): 94 µM
GI50 (EKVX NSCLC): 24.6 µM
TGI (EKVX NSCLC): > 100 µM
GI50 (HCC-2998 colon): 29.4 µM
TGI (HCC-2998 colon): 93.2 µM
GI50 (HCT-15 colon): 27 µM
TGI (HCT-15 colon): 97.4 µM
GI50 (HL-60(TB) leukemia): 12.4 µM
TGI (HL-60(TB) leukemia): 25.3 µM
GI50 (HOP-62 NSCLC): 11.1 µM
TGI (HOP-62 NSCLC): 23.1 µM
GI50 (HOP-92 NSCLC): 20.8 µM
TGI (HOP-92 NSCLC): 65.7 µM
GI50 (HS 578T breast): 6.06 µM
TGI (HS 578T breast): 23.1 µM
GI50 (HT29 colon): 46.4 µM
TGI (HT29 colon): > 100 µM
GI50 (IGROV1 ovarian): 20.5 µM
TGI (IGROV1 ovarian): 55.7 µM
GI50 (KM12 colon): 22.9 µM
TGI (KM12 colon): 96.5 µM
GI50 (M14 melanoma): 20.5 µM
TGI (M14 melanoma): 47.1 µM
GI50 (MALME-3M melanoma): 20 µM
TGI (MALME-3M melanoma): 76.4 µM
GI50 (MCF7 breast): 18.9 µM
TGI (MCF7 breast): 33.8 µM
GI50 (MDA-MB-231 breast): 10.9 µM
TGI (MDA-MB-231 breast): 40.3 µM
GI50 (MDA-MB-435 melanoma): 17 µM
TGI (MDA-MB-435 melanoma): 54.6 µM
GI50 (MDA-MB-468 breast): 2.54 µM
TGI (MDA-MB-468 breast): 7.46 µM
GI50 (MOLT-4 leukemia): 13.6 µM
TGI (MOLT-4 leukemia): 26.6 µM
GI50 (NCI-H226 lung): 24.1 µM
TGI (NCI-H226 lung): 69 µM
GI50 (NCI-H23 lung): 13.2 µM
TGI (NCI-H23 lung): 29.7 µM
GI50 (NCI-H322M lung): 26.1 µM
TGI (NCI-H322M lung): 98.8 µM
GI50 (NCI-H460 NSCLC): 14.9 µM
TGI (NCI-H460 NSCLC): 31.7 µM
GI50 (NCI-H522 lung): 8.75 µM
TGI (NCI-H522 lung): 43.1 µM
GI50 (NCI/ADR-RES ovarian): 20 µM
TGI (NCI/ADR-RES ovarian): 40.2 µM
GI50 (OVCAR-3 ovarian): 16.2 µM
TGI (OVCAR-3 ovarian): 42.3 µM
GI50 (OVCAR-4 ovarian): 19.1 µM
TGI (OVCAR-4 ovarian): 44.5 µM
GI50 (OVCAR-5 ovarian): 20.9 µM
TGI (OVCAR-5 ovarian): 62.5 µM
GI50 (OVCAR-8 ovarian): 20.9 µM
TGI (OVCAR-8 ovarian): 55.2 µM
GI50 (PC-3 prostate): 25.5 µM
TGI (PC-3 prostate): 74.5 µM
GI50 (RPMI-8226 leukemia): 15.3 µM
TGI (RPMI-8226 leukemia): 33.9 µM
GI50 (RXF 393 renal): 18 µM
TGI (RXF 393 renal): 56.2 µM
GI50 (SF-268 CNS): 17.3 µM
TGI (SF-268 CNS): 40.2 µM
GI50 (SF-295 CNS): 17.3 µM
TGI (SF-295 CNS): 33.2 µM
GI50 (SF-539 CNS): 14.5 µM
TGI (SF-539 CNS): 32.6 µM
GI50 (SK-MEL-2 melanoma): 19.1 µM
TGI (SK-MEL-2 melanoma): 39.6 µM
GI50 (SK-MEL-28 melanoma): 33.2 µM
TGI (SK-MEL-28 melanoma): 93.1 µM
GI50 (SK-MEL-5 melanoma): 16.8 µM
TGI (SK-MEL-5 melanoma): 53.4 µM
GI50 (SK-OV-3 ovarian): 19.8 µM
TGI (SK-OV-3 ovarian): 51.7 µM
GI50 (SN12C renal): 28.8 µM
TGI (SN12C renal): 79.8 µM
GI50 (SNB-19 CNS): 24.9 µM
TGI (SNB-19 CNS): 71.7 µM
GI50 (SNB-75 CNS): 14.3 µM
TGI (SNB-75 CNS): 30.5 µM
GI50 (SR leukemia): 1.94 µM
TGI (SR leukemia): 3.53 µM
GI50 (SW-620 colon): 41.9 µM
TGI (SW-620 colon): > 100 µM
GI50 (T-47D breast): 19.9 µM
TGI (T-47D breast): 36.8 µM
GI50 (TK-10 renal): 45.4 µM
TGI (TK-10 renal): > 100 µM
GI50 (U251 glioblastoma): 12.8 µM
TGI (U251 glioblastoma): 36 µM
GI50 (UACC-257 melanoma): 23.4 µM
TGI (UACC-257 melanoma): > 100 µM
GI50 (UACC-62 melanoma): 16.6 µM
TGI (UACC-62 melanoma): 33.5 µM
